pIC50: −log10 of the molar value.
Target: T1, Human ATX protein (Homo sapiens, UniProt Q13822)
T1 construct: made in house
Test: ATX biochemical FRET assay with FS-3 substrate
Settings: FS-3 substrate 2 μM, ATX 1.0 μg/mL, 30 min preincubation, 2 hours at room temperature
From the text: ATX (Autotaxin) is a 125 KDa glycoprotein with lysophospholipase D (LPLD) activity that generates the bioactive lipid lysophosphatidic acid (LPA) from lysophosphatidylcholine (LPC). The ATX biochemical assay utilizes a FRET (fluorescence resonance energy transfer) technology platform. The fluorescence signal of FRET substrate FS-3 is quenched due to intra-molecular FRET of a fluorophore to a non-fluorescing quencher (Ferguson, C. G., et al., Org Lett. 2006 May 11; 8(10): 2023-2026, which is incorporated by reference in its entirety). ATX catalyzes the hydrolysis of the substrate which separates the dabsyl quencher from the fluorescein reporter, which becomes fluorescent. The reaction is monitored by a SpectraMax M5 (Molecular Devices, Sunnyvale, Calif.) with at excitation wavelength 485 nm and emission wavelength […].
Fatty acid free-BSA (Sigma A8806): 10 mg/mL in H2O, stored at 4° C.
2×ATX assay buffer: 100 mM Tris, 280 mM NaCl, 10 mM KCl, 2 mM CaCl2, 2 mM MgCl2, pH 7.4.
Human ATX protein: expressed and purified in house. Stored at −80° C.
Substrate FS-3 (Echelon, L-2000): 100 μg in 77.74.L H2O (1 mM stock), stored at −20° C.
384-well flat bottom plates—Corning #3575.
Compound dilution—All compounds were provided at 10 mM in 100% DMSO. In the first well, 2 μL of 10 mM compound was added to 78 μL of DMSO (1:40 dilution). In subsequent wells 3-fold dilution (total 10 dilutions) were performed.
1×ATX assay buffer was made up with a final concentration of 1 mg/mL fatty acid free-BSA using 2×ATX assay buffer, 10 mg/ml fatty acid free-BSA and ddH2O.
ATX protein was diluted with 1×ATX assay buffer to a concentration of 1.32 μg/mL (1.32×). 38 μL was added per well to the assay plate. The final concentration of ATX in the reaction as 1.0 μg/mL.
2 μL per well of compounds was transferred to provide the desired concentration. The plate was centrifuged, then incubated at room temperature for 30 minutes on the shaker.
FS-3 was diluted with 1×ATX assay buffer to a concentration of FS-3 of 10 μM (5×). Then, 10 μL was added per well to the assay plate. The final concentration of FS-3 in the reaction was 2 μM. The plate was centrifuged. The plate was kept shaking at room temperature for 2 hours. Because FS-3 substrate is light sensitive, plates were kept covered and protected from light.
Fluorescence was measured using SpectraMax M5 (excitation at 485 nm/emission at 538 nm, top read).

| SMILES | pIC50 |
| --- | --- |
| O=C(O)C1CCCCN1Cc1ccc2c(C(F)(F)F)c(O[C@H]3CC[C@@H](C(F)(F)F)CC3)ccc2c1 (relative stereo) [Example 29, 1-((5-(trifluoromethyl)-6-((cis)-4-(trifluoromethyl)cyclohexyloxy)naphthalen-2-yl)methyl)piperidine-2-carboxylic acid] | ≥ 6.30 |
| O=P(O)(O)Cc1ccc(NCc2ccc3c(C(F)(F)F)c(O[C@H]4CC[C@@H](C(F)(F)F)CC4)ccc3c2)cc1 [Example 68, (4-((5-(trifluoromethyl)-6-(cis-4-(trifluoromethyl)cyclohexyloxy)naphthalene-2-yl)methyl)aminophenyl)methylphosphonic acid] | ≥ 7.00 |
| O=C(O)C1CCC(NCc2ccc3c(C(F)(F)F)c(O[C@H]4CC[C@@H](C(F)(F)F)CC4)ccc3c2)C1 (single isomer, unassigned) [Example 3b, 3-(((5-(trifluoromethyl)-6-((cis-4-(trifluoromethyl)cyclohexyl)oxy)-naphthalen-2-yl)methyl)amino)cyclopentanecarboxylic acid] | ≥ 6.30 |
| CC(C)CC(NC1CC(C(=O)O)C1(C)C)c1ccc2c(C(F)(F)F)c(O[C@H]3CC[C@@H](C(F)(F)F)CC3)ccc2c1 (relative stereo) [Example 40, 2,2-dimethyl-3-(3-methyl-1-(5-(trifluoromethyl)-6-((cis)-4-(trifluoromethyl)cyclohexyloxy)naphthalen-2-yl)butylamino)cyclobutanecarboxylic acid] | ≥ 6.60 |
| O=C(O)c1ccc(CNC(=O)c2ccc3c(C(F)(F)F)c(O[C@H]4CC[C@@H](C(F)(F)F)CC4)ccc3c2)nc1 [Example 23, 6-((5-(trifluoromethyl)-6-((cis)-4-(trifluoromethyl)cyclohexyloxy)-2-naphthamido)methyl)nicotinic acid] | ≥ 6.30 |
| O=C(O)C1CCCN(C(=O)c2ccc3c(C(F)(F)F)c(O[C@H]4CC[C@@H](C(F)(F)F)CC4)ccc3c2)CC1 (relative stereo) [Example 31, 1-(5-(trifluoromethyl)-6-((cis)-4-(trifluoromethyl)cyclohexyloxy)-2-naphthoyl)azepane-4-carboxylic acid] | ≥ 6.30 |
| CN(Cc1ccc2c(C(F)(F)F)c(O[C@H]3CC[C@@H](C(F)(F)F)CC3)ccc2c1)C[C@H]1CC[C@H](C(=O)O)CC1 [Example 28, (trans)-4-((methyl((5-(trifluoromethyl)-6-((cis)-4-(trifluoromethyl)cyclohexyloxy)naphthalen-2-yl)methyl)amino)methyl)cyclohexanecarboxylic acid] | ≥ 6.30 |
| O=C(O)[C@H]1CC[C@H](CNCc2ccc3c(C(F)F)c(O[C@H]4CC[C@@H](C(F)(F)F)CC4)ccc3c2)CC1 [Example 34, (trans)-4-(((5-(difluoromethyl)-6-((cis)-4-(trifluoromethyl)cyclohexyloxy)naphthalen-2-yl)methylamino)methyl)cyclohexanecarboxylic acid] | ≥ 6.60 |
| O=C(O)C1CCC(NCc2ccc3c(C(F)(F)F)c(O[C@H]4CC[C@@H](C(F)(F)F)CC4)ccc3c2)C1 (relative stereo) [Example 66, 1-((5-(trifluoromethyl)-6-((cis-4-(trifluoromethyl)cyclohexyl)oxy)-naphthalen-2-yl)methyl)aminocyclopentane-3-carboxylic acid] | ≥ 6.30 |
| CC1(C)C(NCc2ccc3c(C(F)(F)F)c(OC4CCC(C(F)(F)F)CC4)ccc3n2)CC1C(=O)O (stereo not drawn) [Example 87, 2,2-dimethyl-3-((((5-(trifluoromethyl)-6-(cis-4-(trifluoromethyl)cyclo-hexyl)oxy)quinolin-2-yl)methyl)amino)cyclobutanecarboxylic acid] | ≥ 6.30 |

Now from value to compound:

| pIC50 | SMILES |
| --- | --- |
| ≥ 7.00 | CC(c1ccc2c(C(F)(F)F)c(O[C@H]3CC[C@@H](C)CC3)ccc2c1)N1CCC[C@H](CC(=O)O)C1 (stereo partly drawn) [Example 51, 2-((3R)-1-(1-(6-((cis-4-Methylcyclohexyl)oxy)-5-(trifluoromethyl)naphthalen-2-yl)ethyl)piperidin-3-yl)acetic acid] |
| ≥ 7.00 | C[C@@H](c1ccc2c(C(F)F)c(O[C@H]3CC[C@@H](C)CC3)ccc2c1)N1CCC[C@H](CC(=O)O)C1 [Example 91, 2-((3R)-1-((S)-1-(6-((cis-4-Methylcyclohexyl)oxy)-5-(difluoromethyl)naphthalen-2-yl)ethyl)piperidin-3-yl)acetic acid] |
| ≥ 6.30 | CCC(c1ccc2c(C(F)(F)F)c(O[C@H]3CC[C@@H](C)CC3)ccc2c1)N1CCC(C(=O)O)CC1 (relative stereo) [Example 50, 1-(1-(6-((cis-4-Methylcyclohexyl)oxy)-5-(trifluoromethyl)naphthalen-2-yl)propyl)piperidine-4-carboxylic acid] |
| ≥ 7.00 | C[C@H]1CC[C@@H](Oc2ccc3cc(CN4CCC[C@H](CC(=O)O)C4)ccc3c2C(F)F)CC1 [Example 56, 2-((3R)-1-((6-((cis-4-Methylcyclohexyl)oxy)-5-(difluoromethyl)naphthalen-2-yl)methyl)piperidin-3-yl)acetic acid] |
| ≥ 6.30 | CC1CN(Cc2ccc3c(C(F)(F)F)c(O[C@H]4CC[C@@H](C(F)(F)F)CC4)ccc3c2)CCC1C(=O)O (relative stereo) [Example 74, 1-((5-(trifluoromethyl)-6-((cis-4-(trifluoromethyl)cyclohexyl)oxy)-naphthalen-2-yl)methyl)-3-methylpiperidine-4-carboxylic acid] |
| ≥ 6.60 | CC(C(=O)O)[C@H]1CCCN(Cc2ccc3c(C(F)(F)F)c(O[C@H]4CC[C@@H](C(F)(F)F)CC4)ccc3c2)C1 (mixture of isomers) [Example 102, (S)-2-((R)-1-((5-(trifluoromethyl)-6-((cis-4-(trifluoromethyl)cyclohexyl)oxy)naphthalen-2-yl)methyl)piperidin-3-yl)propanoic acid] |
| ≥ 7.00 | C[C@H](c1ccc2c(C(F)(F)F)c(O[C@H]3CC[C@@H](C)CC3)ccc2c1)N1CCC[C@H](CC(=O)O)C1 [Example 96, 2-((3R)-1-((R)-1-(6-((cis-4-Methylcyclohexyl)oxy)-5-(trifluoromethyl)naphthalen-2-yl)ethyl)piperidin-3-yl)acetic acid] |
| ≥ 7.00 | CC[C@H]1CC[C@@H](Oc2ccc3cc(C(C)N4CCC[C@H](CC(=O)O)C4)ccc3c2C(F)(F)F)CC1 (stereo partly drawn) [Example 6, 2-((3R)-1-(1-(6-((cis-4-ethylcyclohexyl)oxy)-5-(trifluoromethyl)naphthalen-2-yl)ethyl)piperidin-3-yl)acetic acid] |
| ≥ 7.00 | C[C@H](c1ccc2c(C(F)F)c(O[C@H]3CC[C@@H](C)CC3)ccc2c1)N1CCC[C@H](CC(=O)O)C1 [Example 92, 2-((3R)-1-((R)-1-(6-((cis-4-Methylcyclohexyl)oxy)-5-(difluoromethyl)naphthalen-2-yl)ethyl)piperidin-3-yl)acetic acid] |
| ≥ 6.60 | O=C(O)CC1CCCN(Cc2ccc3c(C(F)(F)F)c(O[C@H]4CC[C@@H](C(F)(F)F)CC4)ccc3c2)C1 (relative stereo) [Example 67, 1-((5-(trifluoromethyl)-6-((cis-4-(trifluoromethyl)cyclohexyl)oxy)-naphthalen-2-yl)methyl)piperidine-3-acetic acid] |
| ≥ 7.00 | CC[C@H](c1ccc2c(C(F)(F)F)c(O[C@H]3CC[C@@H](C)CC3)ccc2c1)N1CCC[C@H](CC(=O)O)C1 [Example 60, 2-((3R)-1-((R)-1-(6-((cis-4-Methylcyclohexyl)oxy)-5-(trifluoromethyl)naphthalen-2-yl)propyl)piperidin-3-yl)acetic acid] |

— patent US9555050B2 (BIOGEN MA INC., priority 2012, dated 2017)
